The text below walks through data of ChEMBL document CHEMBL3808323, “Synthesis and evaluation of novel benzylphthalazine derivatives as hedgehog signaling pathway inhibitors” (Bioorg Med Chem Lett, 2016).

Data set [1] is described as follows: Inhibition of hedgehog signaling (unknown origin) expressed in mouse NIH/3T3 cells by Gli-dual-luciferase reporter assay. Type of data set: cell-based. To be noted: NIH3T3. In general terms: Reporter assays use an easily measured gene product as a stand-in for the process of interest.
Data set [2] can be described thus: Systemic clearance in Sprague-Dawley rat plasma at 2 mg/kg, iv. Type of data set: ADME, organism-based.
The nature of data set [3]: Cmax in Sprague-Dawley rat plasma at 10 mg/kg, po. Type of data set: ADME, organism-based. Further details: dose 10 mg/kg, route oral.
The next data set has as its system Mus musculus. As to the kind of experiment: Toxicity in athymic nude mouse allografted with mouse ptch+/- and p53-/- medulloblastoma cells assessed as body weight loss at 40 mg/kg, bid administered via oral gavage. Format: organism-based. To be noted: in vivo.
A short description of data set [4]: Tmax in Sprague-Dawley rat plasma at 10 mg/kg, po. Format: ADME, organism-based.
Data set [5] can be described thus: Oral bioavailability in Sprague-Dawley rat plasma at 10 mg/kg. Format: ADME, organism-based.
The nature of data set [6]: Inhibition of cell proliferation in mouse ptch+/- and p53-/- medulloblastoma cells after 36 hrs by Brdu assay. Type of data set: functional.
For a further data set, the system named is Medulloblastoma cell. As to the kind of experiment: Antitumor activity against mouse ptch+/- and p53-/- medulloblastoma cells allografted in athymic nude mouse assessed as tumor growth inhibition at 40 mg/kg, bid administered via oral gavage measured twice per week by microcaliper. Type of data set: functional, organism-based.
Data set [7] is described as follows: AUC (0 to infinity) in Sprague-Dawley rat plasma at 2 mg/kg, iv. Format: ADME, organism-based. Set-up: dose 2 mg/kg, time infinity, route intravenous.
The nature of data set [8]: Volume of distribution at steady state in Sprague-Dawley rat plasma at 2 mg/kg, iv. To be noted: read-out: Vdss. Type of data set: ADME, organism-based.
Data set [9] can be described thus: AUC (0 to infinity) in Sprague-Dawley rat plasma at 10 mg/kg, po. Further details: dose 10 mg/kg, route oral, time infinity. Format: ADME, organism-based.
Data set [10] can be described thus: Half life in Sprague-Dawley rat plasma at 2 mg/kg, iv. Type of data set: ADME, organism-based.

Activity calls are given as the source filed them.

In general, IC50 refers to the concentration needed to halve the response being measured. A lower IC50 goes with inhibition by little substance. `CC(=O)c1ccc(N(C)C2CCN(c3nnc(Cc4ccccc4)c4ccccc34)CC2)nc1` showed an IC50 in data set [1] greater than 1000 nM. Still for that read-out and setting: next, `CC(C)(O)c1ccc(N2CC3(C2)CN(c2nnc(Cc4ccccc4)c4ccccc24)C3)nc1`: greater than 1000 nM. Regarding `CN(c1ccc(C(C)(C)O)cn1)C1CCN(c2nnc(Cc3ccccc3)c3ccccc23)CC1`, the IC50 in data set [1] worked out at 6.66 nM. On the same count and under the same terms, for `CC(C)(O)c1ccc(NC2CCCN(c3nnc(Cc4ccccc4)c4ccccc34)C2)nc1` (racemic) the value was greater than 1000 nM. On the same count and under the same terms, for `CC(C)(O)c1ccc(N2CCC(Nc3nnc(Cc4ccccc4)c4ccccc34)C2)nc1` (racemic) the value was 9.66 nM; for `CCC(O)(CC)c1ccc(NC2CCN(c3nnc(Cc4ccccc4)c4ccccc34)CC2)nc1`, 10.3 nM; for `CC(C)(O)c1ccc(NC2CCN(c3nnc(Cc4ccccc4)c4ccccc34)C2)nc1` (racemic), 3.28 nM. `CCC(O)(CC)c1ccc(N2CCC(Nc3nnc(Cc4ccccc4)c4ccccc34)C2)nc1` (racemic) showed an IC50 in [1] of 3.91 nM. The same measure, in the same setting: for `CC(C)(O)c1ccc(OC2CN(c3nnc(Cc4ccccc4)c4ccccc34)C2)nc1` the value was 648 nM; for `CC(=O)c1ccc(NC2CCN(c3nnc(Cc4ccccc4)c4ccccc34)CC2)nc1`, 2.45 nM; for `CS(=O)(=O)c1ccc(C(=O)Nc2ccc(Cl)c(-c3ccccn3)c2)c(Cl)c1` [VISMODEGIB], 2.3 nM. The clearance is the volume of plasma or blood freed of the substance per unit of time. Read a low clearance as a low capacity for elimination. The term Cmax denotes the maximum level reached in the sampled fluid or tissue. What is called Tmax is the time at which the peak concentration occurs. One may read the bioavailability as the share of a dose that reaches the circulation, judged against a reference dose that is usually intravenous. A lower bioavailability goes with poor availability. Usually AUC(0-inf) stands for total exposure, with the tail of the curve extrapolated. A low value points to less exposure. By half-life is commonly meant the time needed for the level to fall by half in the phase considered. A high value points to slow decline. As for `CC(C)(O)c1ccc(NC2CCN(c3nnc(Cc4ccccc4)c4ccccc34)CC2)nc1`, the concentration for half-maximal inhibition (IC50) amounted to 0.58 nM in data set [1] and 38 nM in data set [6]. The same compound yielded a clearance in data set [2] of 42.1 mL/min/kg. For the same compound, in data set [3], the Cmax is 950 nM. In addition, in the data set on Mus musculus, the Activity entry is “Non-toxic”. Further, the Tmax in data set [4] came out at 2 h. Further, the bioavailability in [5] worked out at 40.1%. Further, the TGI result in the data set on Medulloblastoma cell is “Active”. In addition, the results for the AUC(0-inf) in data set [7] and in data set [9] were 1.64 µM·h and 3.28 µM·h, respectively. Also, the Vd in [8] was 2.16 L/kg. The compound further showed a half-life in data set [10] of 1.03 h. In data set [1], `CCOC(=O)c1ccc(N2CCC(Nc3nnc(Cc4ccccc4)c4ccccc34)C2)nc1` (racemic) had an IC50 of 45.7 nM. As to `CC(C)(O)c1ccc(N2CCN(c3nnc(Cc4ccccc4)c4ccccc34)CC2)nc1`, the IC50 in [1] is 7.1 nM; in [6], 44.6 nM. Moreover, the TGI entry in the data set on Medulloblastoma cell was “Active”. Consider `CCC(O)(CC)c1ccc(NC2CCN(c3nnc(Cc4ccccc4)c4ccccc34)C2)nc1` (racemic), for which, in data set [1], the IC50 is 2.97 nM. Consider `CCOC(=O)c1ccc(NC2CCCN(c3nnc(Cc4ccccc4)c4ccccc34)C2)nc1` (racemic), for which the IC50 in [1] is greater than 1000 nM. Regarding `CCOC(=O)c1ccc(NC2CCN(c3nnc(Cc4ccccc4)c4ccccc34)C2)nc1` (racemic), in data set [1], the IC50 is 8.76 nM.
